Results as given in article PMC5554537 (Frontiers in Pharmacology, 2017).
Read-outs that look alike come from different tables or passages of the source.

Legend:
[1] = Metabolite profile in plasma, liver and HT29 tumor after i.p. SN30000; type: in vivo, NIH-III mice; conditions: SN30000 186 mg/kg i.p.; for Metabolite/SN30000 peak area, Tumor: HT29 tumor
Method: Mouse plasma and tissue homogenates, prepared from tissue samples in two volumes of ice-cold PBS using a TissueLyser II (Qiagen Sciences, Germantown, MD, United States) with 30 Hz oscillation frequency for 1 min, were processed by precipitating proteins with 3 vol MeOH and centrifuging (13,000 g, 4°C for 10 min). Supernatants were diluted into 3 vol water and analyzed with an Agilent model 6460 LC-MS/MS with an in-line photodiode array absorbance detector. Chromatographic separation was performed on a Zorbax Eclipse C18 column (100 mm × 3.0 mm, 1.8 μm; Agilent Technologies) at 35°C with a flow rate of 0.6 mL/min, with positive or negative mode electrospray ionization. The mobile phase was a gradient constructed using 80% MeCN/20% water/0.1% formic acid v/v/v (A) and 0.1% formic acid in water (B) from 10% A to 80% A with a total run time of […]. The gradient profile was: 0–4 min, 10% A; 4–11 min linear increase to 60% A; 11–12 min to 80% A; held for 1 min, returned to 10% A over 0.5 min and held for 2 min before the next sample injection. Absorbance spectra were collected from 230 to 600 nm with a reference wavelength of 550 nm. The mass/charge (m/z) ratio was scanned from 100 to 800 with a fragmentor voltage of 120 V. MS^2 with various collision energies was used for further characterization of some metabolites.
Metabolites were investigated in plasma, liver and HT29 tumors following i.p. dosing of female NIH-III mice with SN30000 at 186 mg/kg, which represents its previously determined MTD for this route and mouse strain ([Gu et al., 2014]). Representative chromatograms are shown in Supplementary Figure 1. A total of 19 metabolites (M1–M19) were provisionally identified (Figure 1 and Table 1). Assignments were confirmed by comparison with synthetic standards in the case of the 1-oxide M14 and nor-oxide M13, which have previously been reported as murine metabolites of SN30000 ([Wang et al., 2012]) and for M15 which is known to be the major photodegradation product of SN30000 ([Gu et al., 2014]). In addition, the previously unreported metabolite M18, which is the main plasma metabolite at late times, was isolated from pooled plasma of mice dosed with M14 in sufficient quantity for characterization by NMR (Supplementary Data). This identified M18 as an oxidation product of M14 with an alkanoic acid side-chain (Figure 1), an assignment that was confirmed by synthesis of the authentic compound which was identical by HPLC retention time, absorbance spectrum, elemental analysis, mass spectrum and NMR spectroscopy.

[2] = Compartmental plasma PK model; type: in vivo
Excerpt: This model, shown schematically in Figure 9, is based on total (free + bound) plasma concentrations; the major metabolites (M14, M13, and M18) are explicit and clearance of SN30000 occurs only by reduction to M14. The i.p. bioavailability of SN30000 was modeled with an additional term for loss from the peritoneal compartment (kloss).

[3] = in vivo; conditions: female, NIH-III nude, mouse, plasma, ip
Method: SN30000, M14 and M18 dosing solutions were prepared fresh in normal saline, filtered through 0.45 μm Acrodisc filters (Pall Life Sciences, Port Washington, NY, United States), protected from light in amber vials, and used within 3 h. Doses are expressed as mg of free base equivalent for SN30000 and M14, and free acid in the case of M18. […] Blood samples were collected from mice at various times by cardiac puncture, seconds after cervical dislocation, into ice-cold tubes containing K2EDTA. These were placed on ice immediately after collection and centrifuged (3,000 g, 3 min) within 10 min to harvest plasma. Plasma and tissues were rapidly frozen in liquid nitrogen before storage at -80°C for subsequent bioanalysis.
Non-compartmental parameters of 3H-mannitol for the data
shown in Figure 9 where female NIH-III nude mice were dosed with 3H-mannitol at
from mannitol concentrations as described in Methods for SN30000 and its metabolites.
Co-administered with Administered 16hr

[4] = system: NIH-III mice; experiment: Core body (rectal) temperature and acute clinical signs after dosing; type: in vivo
Method: Supplementary Figure 3. Initial rates of core temperature decrease in (untreated) NIH-III mice post- mortem: co mparison with initial temperature change ante- mortem following treatment with benzotriazine oxides at their MTD. Temperature was measured in rectu m and liver over 15 min. Initial rates of temperature loss (°C/min) were: post- mortem (rectum):
(rectum) 0.33. The rectal temperature loss following dosing with M14 (135 mg/kg) was 0.6 °C/min (not shown for clarity). The drug-induced changes are redrawn from Fig. 4.

[5] = system: SiHa cells; experiment: Oxygen consumption rate, Seahorse XFe96 analyser; type: cell-based, human; conditions: 200 µM, mitochondrial stress test
Method: (OCR) of the human cervical carcinoma cell line SiHa and a previously described (Guise et al., 2007) POR-overexpressing transfectant SiHa/POR, determined using a Seahorse XFe96 Analyser (Agilent). Cells were passaged in αMEM plus 5% FCS, with 1 µM puromycin to maintain POR expression in the SiHa/POR cell line. Cells were ty pically seeded at 4×10^4 cells/well in Seahorse 96 well plates (without puromycin) and ~ 18 hr later the medium was changed to Seahorse medium with 10 mM glucose and 2 mM glutamine (SMGG) adjusted to pH 7.35 (150 µl/well). Plates were degassed to remove CO2, and inhibitors were added serially using the Seahorse injectors (25 µl/injection) with rotenone (final concentration 0.5 µM) typically added at the start of the 30 min equilibration in the flux analyser. OCR was monitored for three 3 min periods following each drug addition. […]
injection 1 and at each subsequent injection to maintain concentrations at 200 µM continuously during the test. The control received equivalent injections of SMGG without drugs. In all cases (including controls), injection 2 added oligomycin to give 0.5 µM, injection 3 added carbonyl cyanide […] (FCCP) to 0.5 µM, and injection 4 added rotenone and antimy cin to 1 µM each. V alues are means and errors are standard deviations, for 6 replicate cultures. […]
suppressed by M14, both in the presence (injection 1) and absence (injection 4) of respiratory […]
presence or absence of 0.5 µM rotenone when SN30000 is added cumulatively to give the indicated concentrations. Values are means and SEM for 5 replicate cultures. The fall in OCR after transient stimulation at each addition of SN30000 is consistent with the pattern for CHO/POR cells in Supplementary Fig. 4A.
C: Concentration dependence of increases in OCR by SiHa/POR cells, measured at the first […]
effects noted above. Left panel: SN30000. Right panel: TPZ. Values are means and errors are […]

[6] = system: NIH-III mice; experiment: Mouse toxicity: MTD, survival and body weight loss after single i.p. doses; type: in vivo; conditions: i.p., NIH-III mice, as stated for the temperature study (Figure 4)
Excerpt: Mouse toxicity SN30000 and metabolites M14 and M18: survival and body weight loss following single i.p. doses to NIH-III mice.
Cmpd Dose Body weight nadir Body weight nadir
(µmol/kg) Survivala Survivala
Day Weight loss (%)b Day Weight loss (%)b […]
a Survival reported as a fraction of total nu mber of animal treated at a giv en dose, with an observation time of 14 days. Deaths were predominantly due to humane ter mination because of persistent clinical signs or body weight loss > 15% of pretreatment values. b Body weig ht loss at nadir, relative to pre-treatment values. Values are mean and errors are […]
c Data from Gu et al., 2014 d Mouse died <24 hr after dosing.

[7] = administered 16hr after SN30000 0 mg/kg
[8] = co-administered with SN30000 18.6 mg/kg i.p.
[9] = co-administered with SN30000 92.8 mg/kg i.p.
[10] = co-administered with SN30000 186 mg/kg i.p.
[11] = at the highest i.p. dose of co-administered SN30000

## [O-][n+]1nc(CCCN2CCOCC2)nc2cc3c(cc21)CC=C3 [M5]
[1]
  Metabolite/SN30000 peak area, Tumor: 0.04
  Metabolite/SN30000 peak area, Liver: 0.64
  Metabolite/SN30000 peak area, Plasma: 0.05

## [O-][n+]1nc(CCCNCCO)[n+]([O-])c2cc3c(cc21)CCC3 [M7]
[1]
  Metabolite/SN30000 peak area, Tumor: 0.06
  Metabolite/SN30000 peak area, Liver: 0.17
  Metabolite/SN30000 peak area, Plasma: 0.06

## OCCNCCCc1nnc2cc3c(cc2n1)CCC3 [M11]
[1]
  Metabolite/SN30000 peak area, Tumor: 0.06
  Metabolite/SN30000 peak area, Liver: 0.34
  Metabolite/SN30000 peak area, Plasma: 0.04

## [O-][n+]1nc(CCCNCCO)nc2cc3c(cc21)CCC3 [M12]
[1]
  Metabolite/SN30000 peak area, Tumor: 0.16
  Metabolite/SN30000 peak area, Liver: 1.06
  Metabolite/SN30000 peak area, Plasma: 0.13

## [O-][n+]1nc(CCC[N+]2([O-])CCOCC2)nc2cc3c(cc21)CCC3 [M15]
[1]
  Metabolite/SN30000 peak area, Tumor: 0.24
  Metabolite/SN30000 peak area, Liver: 0.21
  Metabolite/SN30000 peak area, Plasma: 0.26

## O=C(O)CCc1n[n+]([O-])c2cc3c(cc2[n+]1[O-])CCC3 [M16]
[1]
  Metabolite/SN30000 peak area, Tumor: 0.49
  Metabolite/SN30000 peak area, Liver: 0.34
  Metabolite/SN30000 peak area, Plasma: 0.50

## O=C(O)CCc1nnc2cc3c(cc2n1)CCC3 [M17]
[1]
  Metabolite/SN30000 peak area, Tumor: 0.14
  Metabolite/SN30000 peak area, Liver: 0.12
  Metabolite/SN30000 peak area, Plasma: 0.11

## O=C1COCCN1CCCc1nc2cc3c(cc2[n+]([O-])n1)CCC3 [M19]
[1]
  Metabolite/SN30000 peak area, Tumor: 0.02
  Metabolite/SN30000 peak area, Liver: 0.27
  Metabolite/SN30000 peak area, Plasma: 0.03

## OC[C@@H](O)[C@@H](O)[C@H](O)[C@H](O)CO [Mannitol, mannitol]
[2]; 1-Oxide and Nor-oxide values fixed
  Central compartment volume V1: 0.39 L/kg
[2]; NIH-III, mouse, in vivo
  Approximate % suppression per °C of CL: ~24%
[2]; NIH-III, mouse, plasma, other: i.p. and i.v. datasets fitted simultaneously, model clearance of the compound, read-out: CL (converted)
  clearance: 19.5 mL/min/kg
[2]; NIH-III, mouse, plasma, other: i.p. and i.v. datasets fitted simultaneously, read-out: Steady state volume VSS
  Vd: 0.39 L/kg
[3]; 18.6 mg/kg, administered 16hr after SN30000 18.6 mg/kg i.p.
  Cmax: 36.9 µM
[3]; 18.6 mg/kg, T1/2, administered 16hr after SN30000 18.6 mg/kg i.p.
  half-life: 21 min
[3]; 186 mg/kg, administered 16hr after SN30000 186 mg/kg i.p.
  Cmax: 33.2 µM
[3]; 186 mg/kg, T1/2, administered 16hr after SN30000 186 mg/kg i.p.
  half-life: 23.2 min
[3]; [7]
  Cmax: 31.7 µM
[3]; co-administered with SN30000 1.86 mg/kg i.p.
  Cmax: 41.2 µM
[3]; [8]
  Cmax: 43.5 µM
[3]; [9]
  Cmax: 52.3 µM
[3]; [10]
  Cmax: 51 µM
[3]; T1/2, administered 16hr after SN30000 0 mg/kg
  half-life: 19.7 min
[3]; T1/2, co-administered with SN30000 1.86 mg/kg i.p.
  half-life: 14.1 min
[3]; T1/2, co-administered with SN30000 18.6 mg/kg i.p.
  half-life: 13.1 min
[3]; T1/2, co-administered with SN30000 92.8 mg/kg i.p.
  half-life: 24.6 min
[3]; T1/2, co-administered with SN30000 186 mg/kg i.p.
  half-life: 26.9 min
3H-mannitol 25 µmol/kg co-administered with SN30000 1.86 mg/kg i.p.
  AUC: 16.1 µM.hr/L
[7]
  AUC: 17.5 µM.hr/L
Administered 16hr after SN30000 18.6 mg/kg i.p.
  AUC: 19.6 µM.hr/L
Administered 16hr after SN30000 186 mg/kg i.p.
  AUC: 20.4 µM.hr/L
[11]
  Increase in AUC: 3 fold
  Increase in plasma half-life: ~2 fold
[8]
  AUC: 17.9 µM.hr/L
[9]
  AUC: 36.2 µM.hr/L
[10]
  AUC: 44.5 µM.hr/L

## Nc1n[n+]([O-])c2ccccc2[n+]1[O-] [TPZ, tirapazamine, reference compound]
[4]; i.p. SN30000 186 mg/kg, TPZ 31.7 mg/kg, M14 135 mg/kg
  Initial rate of temperature loss (rectum): 0.33 °C/min
[4]; i.p. dosing at MTD, compared with SN30000
  Effect on core body temperature: induced hypothermia
[5]
  Effect on oxygen consumption rate (OCR): increased
[6]
  MTD: 31.7 mg/kg
